Data on 23 molecules can be found in ChEMBL document CHEMBL4392845, “Structure-activity relationship study of estrogen receptor down-regulators with a diphenylmethane skeleton” (Bioorg Med Chem, 2019).

Assay [1] has as its target T1, Estrogen receptor (Homo sapiens, UniProt P03372).
T1 sequence (P03372 whole entry): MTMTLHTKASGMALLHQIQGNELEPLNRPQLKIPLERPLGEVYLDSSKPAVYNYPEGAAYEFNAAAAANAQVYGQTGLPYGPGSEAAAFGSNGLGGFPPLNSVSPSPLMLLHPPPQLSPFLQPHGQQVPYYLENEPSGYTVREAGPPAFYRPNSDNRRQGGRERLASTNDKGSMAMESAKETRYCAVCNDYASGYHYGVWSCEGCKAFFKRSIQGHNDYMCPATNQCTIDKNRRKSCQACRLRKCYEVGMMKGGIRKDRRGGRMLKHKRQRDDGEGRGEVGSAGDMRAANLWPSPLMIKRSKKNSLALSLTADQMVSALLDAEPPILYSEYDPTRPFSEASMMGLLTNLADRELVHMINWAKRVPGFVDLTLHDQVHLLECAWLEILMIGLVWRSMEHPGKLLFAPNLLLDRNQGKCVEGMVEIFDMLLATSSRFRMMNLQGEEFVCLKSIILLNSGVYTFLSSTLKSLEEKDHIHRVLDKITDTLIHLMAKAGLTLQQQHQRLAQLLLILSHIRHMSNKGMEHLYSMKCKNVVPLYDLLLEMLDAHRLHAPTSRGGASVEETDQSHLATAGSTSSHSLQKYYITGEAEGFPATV
Description: Binding affinity to GST-tagged human ER alpha ligand-binding domain by TR-FRET assay

Assay [2] addresses T1, Estrogen receptor. This is another data set of the same source.
Description: Selective estrogen receptor down-regulator activity at FLAG-tagged ERalpha (unknown origin) expressed in HEK293 cells assessed as induction of ERalpha degradation by luciferase reporter gene assay
For assay [3], the target named is T1, Estrogen receptor. This is another data set of the same source.
Description: Antagonist activity at FLAG-tagged ERalpha (unknown origin) expressed in HEK293 cells assessed as reduction in E2-induced ER-alpha-mediated transcriptional activity by luciferase reporter gene assay
The target in assay [4] is T1, Estrogen receptor. Conditions: hek293; call rule not given here.
Assay [5] concerns the target T1, Estrogen receptor. Nature of the assay: Agonist activity at FLAG-tagged ERalpha (unknown origin) expressed in HEK293 cells assessed as induction of ER-alpha-mediated transcriptional activity by luciferase reporter gene assay. Type of assay: cell-based.

Structures are written as SMILES. pEC50, pIC50: −log10 of the molar value.

Turning to `CCCC(CCC)(c1ccc(O)c(C)c1)c1ccc(NC)c(C)c1`, the values for the pIC50 at Estrogen receptor [1] and on Estrogen receptor [3] were 8.12 and 6.68, respectively. The molecule further gave a pEC50 on Estrogen receptor [2] of 6.26.
As to `CCCC(CCC)(c1ccc(O)c(C)c1)c1ccc(OCC(=O)OC(C)C)c(C)c1`, the pIC50 was 7.05 at Estrogen receptor [1] and 7.00 on Estrogen receptor [3]. The molecule further gave a pEC50 at Estrogen receptor [2] of 6.94.
For `CCCC(CCC)(c1ccc(O)c(C)c1)c1ccc(/C=C/C(=O)O)c(C)c1`, the pIC50 is 7.43 against Estrogen receptor [1] and 6.28 at Estrogen receptor [3]. Besides, at Estrogen receptor [2], the pEC50 was 6.36.
`CCCCC(CCCC)(c1ccc(O)cc1)c1ccc(O)cc1`: the pIC50 against Estrogen receptor [1] was 7.00. This molecule gave a pEC50 on Estrogen receptor [2] of 6.22.
With `CCCC(CCC)(c1ccc(O)c(C)c1)c1ccc(OCC(=O)N(C)C)c(C)c1`, the figures for the pIC50 against Estrogen receptor [1] and against Estrogen receptor [3] were 7.00 and 7.03, respectively. Besides, the pEC50 on Estrogen receptor [2] was 6.69.
On to `CCCC(CCC)(c1ccc(O)c(C)c1)c1ccc(OCCN(C)C)c(C)c1`, for which the pIC50 at Estrogen receptor [1] is 7.28; on Estrogen receptor [3] it was 7.44. Besides, the EC50 entry at Estrogen receptor [4] is recorded as “Not Active”.
As to `CCCC(CCC)(c1ccc(O)c(C)c1)c1ccc(/C=C/C(=O)OCC)c(C)c1`, the pIC50 was 6.52 against Estrogen receptor [1] and 6.25 against Estrogen receptor [3]. At Estrogen receptor [2], this molecule gave a pEC50 of 6.71.
On to `CCCC(CCC)(c1ccc(O)c(C)c1)c1ccc(OCC(=O)OCC)c(C)c1`, for which the pIC50 on Estrogen receptor [1] is 7.66; at Estrogen receptor [3] it was 7.36. This molecule also gave a pEC50 at Estrogen receptor [2] of 7.03.
Regarding `CCC(=C(c1ccc(O)cc1)c1ccc(O)cc1)c1ccccc1`, the pIC50 is 10.22 on Estrogen receptor [1] and 8.48 at Estrogen receptor [3]. This molecule also gave a pEC50 at Estrogen receptor [2] of 9.00.
Turning to `CCCC(CCC)(c1ccc(O)c(C)c1)c1ccc(OCC(=O)NC)c(C)c1`, the values for the pIC50 at Estrogen receptor [1] and against Estrogen receptor [3] were 7.37 and 7.51, respectively. This molecule gave a pEC50 on Estrogen receptor [2] of 6.98.
`CCc1cc(C(CC)(CC)c2ccc(O)c(CC)c2)ccc1O` had a pIC50 against Estrogen receptor [1] of 6.55. Moreover, the pEC50 on Estrogen receptor [2] is 6.14.
As to `Cc1cc(Cc2ccc(O)c(C)c2)ccc1O`, the pIC50 against Estrogen receptor [1] is 6.10; against Estrogen receptor [3], less than 5.00. Further, the pEC50 at Estrogen receptor [2] and at Estrogen receptor [5] was less than 5.00 each time.
`CCCC(CCC)(c1ccc(O)c(C)c1)c1ccc(O)c(C)c1` had a pIC50 against Estrogen receptor [1] of 8.49 to 8.89. On Estrogen receptor [2], the pEC50 is 8.00.
Turning to `CCCC(CCC)(c1ccc(O)c(CC)c1)c1ccc(O)c(CC)c1`, on Estrogen receptor [1], the pIC50 was 5.89. At Estrogen receptor [2], the pEC50 is less than 5.00.
`CCC(CC)(c1ccc(O)cc1)c1ccc(O)cc1` gave a pIC50 on Estrogen receptor [1] of 7.62. The pEC50 at Estrogen receptor [2] was 6.74.
`CCCCC(CCCC)(c1ccc(O)c(C)c1)c1ccc(O)c(C)c1` had a pIC50 at Estrogen receptor [1] of 7.59. The same molecule had a pEC50 at Estrogen receptor [2] of 7.06.
As to `CCCC(CCC)(c1ccc(O)cc1)c1ccc(O)cc1`, the pIC50 against Estrogen receptor [1] was 8.23. In addition, the pEC50 at Estrogen receptor [2] was 7.19.
`CCCC(CCC)(c1ccc(O)c(C)c1)c1ccc(OCCC(C)C)c(C)c1`: the pIC50 on Estrogen receptor [1] is 6.80; against Estrogen receptor [3], 5.92. The pEC50 on Estrogen receptor [2] is 6.37.
In the case of `CCCC(CCC)(c1ccc(N)c(C)c1)c1ccc(O)c(C)c1`, the pIC50 against Estrogen receptor [1] was 8.77; against Estrogen receptor [3] it was 8.09. Moreover, the pEC50 on Estrogen receptor [2] is 8.05; on Estrogen receptor [5], 8.89.
Turning to `CCC(CC)(c1ccc(O)c(C)c1)c1ccc(O)c(C)c1`, the pIC50 against Estrogen receptor [1] was 8.85. This molecule also gave a pEC50 on Estrogen receptor [2] of 7.55.
Regarding `CCCC(CCC)(c1ccc(O)c(C)c1)c1ccc(N(C)C)c(C)c1`, the results for the pIC50 at Estrogen receptor [1] and at Estrogen receptor [3] were 7.11 and 6.67, respectively. In addition, the pEC50 on Estrogen receptor [2] was 7.10; on Estrogen receptor [5], 7.70.
Take `Oc1ccc(Cc2ccc(O)cc2)cc1`: the pIC50 at Estrogen receptor [1] was 5.85; against Estrogen receptor [3], less than 5.00. On Estrogen receptor [2], the pEC50 was less than 5.00.
Consider `CCCC(CCC)(c1ccc(O)c(C)c1)c1ccc(NC(C)=O)c(C)c1`, for which the pIC50 at Estrogen receptor [1] is 6.45; against Estrogen receptor [3], 6.67. Further, the pEC50 on Estrogen receptor [2] is less than 5.00.
